Patent US20100209484A1, “Transdermal Triptan Delivery System” (priority 2009, published 2010)
Where two headings read alike, the source gives them in different places.

How the values were obtained:
[1] = cited from earlier work
[2] = tested on: isolated hairless mouse skin; experiment: Skin permeation rate, flow-through diffusion cells; format: in vitro ADME; details: for Flux / Lag time: n = 3
Protocol: Skin permeation rates of various zolmitriptan/enhancer formulations were determined using flow through diffusion cells. Permeation experiments were done on isolated hairless mouse skin. A system comprising a multi channel peristaltic pump, a fraction collector, a circulating water bath and flow-through diffusion cells was used. Each flow-through cell had two arms, which allowed the receiver cell medium pumped to a fraction collector. The diffusion cell temperature was maintained at 37° C. by circulating water through the outer part of jacketed receiver cell. The surface area of receiver cell opening as 2 cm^2, and its volume was 5.5 ml Skin was excised from hairless mouse that was sacrificed with diethyl ether. Subcutaneous fat was removed with scissors and scalpel. Each of the flow-through diffusion cell components was connected via silicone rubber tubing with an internal diameter of 0.015 inches. The receiver cell was filled with a pH 6 buffer solution and the media stirred by Teflon-coated magnetic bar. The transdermal device was placed on the stratum corneum and the excised skin was mounted onto each receiver cell. And O-ring and cell top was placed on the top of each skin. These components are then clamped. The amount of drug permeated across the skin was calculated from the cumulative release. The samples were collected every 4 hours for 24 hours and assayed by HPLC. This method was used to measure skin permeation rates referred to as transdermal flux or flux in the examples. Zolmitriptan was analyzed by an HPLC system (Shimadzu Scientific Instruments, MD), consisting of a UV detector (SPD-10A), reversed-phase C8 column, a pump (LC-10AD), and an automatic injector (SIL-10A). The method had been previously described (Vyas et. al., 2005). Briefly, the wavelength of the UV detector was 229 nm, the column temperature was maintained at 30° C., the flow rate was 1 ml/min and injection volume was 10 μl. The mobile phase used consisted of acetonitrile/phosphate buffer pH 7.5 (15/85).

[3] = Solubility of zolmitriptan in pressure sensitive adhesive matrixes; format: physicochemical; details: silicone and PIB adhesive matrixes
[4] = Physical observation of patches by eye or microscope; format: physicochemical
From the text: Permeation is increased for a given concentration of triptan if the triptan is in solution in the matrix. The patches of Table 9 were stored at the room temperature for the designated period of time then observed by eye or/and a microscope. No crystals or white spots have been observed, and the patches are clear. […] This function has not previously been known for this class of compounds.

[5] = cited from earlier work; remark: listed apart in the source
[6] = acrylic adhesive matrix without functional group, zolmitriptan 4 wt%
[7] = adhesive matrix 87-2287 (hydroxyl functional group), zolmitriptan 4 wt%
[8] = adhesive matrix 87-2510 (hydroxyl functional group), zolmitriptan 4 wt%
[9] = adhesive matrix 87-2516 (hydroxyl functional group), zolmitriptan 4 wt%
[10] = drug concentration 4 wt% in 87-2510 matrix
[11] = drug concentration 5 wt% in 87-2510 matrix
[12] = drug concentration 7.5 wt% in 87-2510 matrix
[13] = drug concentration 10 wt% in 87-2510 matrix
[14] = matrix thickness 25 μm, 4% drug loading, 87-2510
[15] = matrix thickness 60 μm, 4% drug loading, 87-2510
[16] = matrix thickness 95 μm, 4% drug loading, 87-2510
[17] = matrix thickness 130 μm, 4% drug loading, 87-2510
[18] = matrix thickness 165 μm, 4% drug loading, 87-2510

CN(C)CCc1c[nH]c2ccc(CS(=O)(=O)N3CCCC3)cc12 [Almotriptan]
bioavailable amount after oral ingestion [1]: 69%

CN1CCC[C@@H]1Cc1c[nH]c2ccc(CCS(=O)(=O)c3ccccc3)cc12 [Eletriptan]
bioavailable amount after oral ingestion [1]: 50%

CN[C@@H]1CCc2[nH]c3ccc(C(N)=O)cc3c2C1 [Frovatriptan]
bioavailable amount after oral ingestion ([1]; in females): 30% | bioavailable amount after oral ingestion ([1]; in males): 24%

CNS(=O)(=O)CCc1ccc2[nH]cc(C3CCN(C)CC3)c2c1 [Naratriptan]
bioavailable amount after oral ingestion ([1]; in females): 74% | bioavailable amount after oral ingestion ([1]; in males): 63%

CN(C)CCc1c[nH]c2ccc(Cn3cncn3)cc12 [Rizatriptan]
bioavailable amount after oral ingestion [1]: 47%

CNS(=O)(=O)Cc1ccc2[nH]cc(CCN(C)C)c2c1 [Sumatriptan]
bioavailable amount after oral ingestion [1]: 14%

CN(C)CCc1c[nH]c2ccc(C[C@H]3COC(=O)N3)cc12 [Zolmitriptan]
Flux [2, 6]: 6.16 μg/cm^2hr | Lag time [2, 6]: 10.7 h | Flux [2, 7]: 6.5 μg/cm^2hr | Lag time [2, 7]: 13.0 h | Flux [2, 8]: 15.6 μg/cm^2hr | Lag time [2, 8]: 9.3 h | Flux [2, 9]: 14.4 μg/cm^2hr | Lag time [2, 9]: 11.8 h | Flux ([2]; adhesive matrix with carboxyl functional group, zolmitriptan 4 wt%): 0.22 μg/cm^2hr | Flux [2, 10]: 13.5 μg/cm^2hr | Lag time [2, 10]: 8.2 h | Flux [2, 11]: 14.8 μg/cm^2hr | Lag time [2, 11]: 8.5 h | Flux [2, 12]: 15.8 μg/cm^2hr | Lag time [2, 12]: 8.4 h | Flux [2, 13]: 18.3 μg/cm^2hr | Lag time [2, 13]: 9.0 h | change of flux with drug loading ([2]; drug loading in 87-2510 matrix increased from 4% to 10%): did not change significantly | Flux [2, 14]: 1.2 μg/cm^2hr | Lag time [2, 14]: 9.0 h | Flux [2, 15]: 6.1 μg/cm^2hr | Lag time [2, 15]: 5.5 h | Flux [2, 16]: 11.7 μg/cm^2hr | Lag time [2, 16]: 5.2 h | Flux [2, 17]: 14.1 μg/cm^2hr | Lag time [2, 17]: 7.0 h | Flux [2, 18]: 13.0 μg/cm^2hr | Lag time [2, 18]: 7.4 h | solubility in adhesive matrix [3]: inadequate | patch appearance ([4]; 4% drug load in 87-2510 matrix): clear | patch appearance ([4]; 5% or more drug load in 87-2510 matrix): milky | bioavailable amount after oral ingestion [1]: 40% | pKa [5]: 9.64 | solubility ([5]; in water and methanol): soluble
